Among the data in PubChem BioAssay (NCI) are TGI values, retold here.

Test systems include CCRF-CEM leukemia; DU-145 prostate; HCT-116 colon; HOP-92 NSCLC; HS 578T breast; MDA-MB-435; NCI/ADR-RES ovarian; OVCAR-8 ovarian; SF-268 CNS; T-47D breast; UACC-62 melanoma.
Holding throughout (assay): NCI tumour cell line growth inhibition, 48 h

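96-well plates; 48 h exposure; 5 concentrations. Endpoints by linear interpolation between flanking doses. Not reached: highest tested concentration assigned. TGI: total growth inhibition.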 Where only a bound is given, the exact number is not on record here.

Take `C=C(CCC(C)C1CCC2C3=C(C(=O)CC21C)C1(C)CCC(=O)[C@@H](C)C1CC3=O)C(C)C(=O)O` (some centres undefined): the TGI with CCRF-CEM leukemia is 42.2 µM; with DU-145 prostate it was more than 100 µM; in the assay with HCT-116 colon, more than 100 µM; with HOP-92 NSCLC, 78.7 µM; with HS 578T breast, more than 100 µM; with MDA-MB-435 it was more than 100 µM. The TGI with NCI/ADR-RES ovarian, in the assay on OVCAR-8 ovarian, in the assay with SF-268 CNS, in the assay on T-47D breast and in the assay with UACC-62 melanoma was more than 100 µM each time.
Take `COc1ccc(/C=c2\[nH]c3nc(=O)c(N4CCOCC4)c(N)n3c2=O)cc1`: the TGI with CCRF-CEM leukemia, with DU-145 prostate, in the assay with HCT-116 colon, in the assay with HOP-92 NSCLC, in the assay with HS 578T breast and in the assay on MDA-MB-435 was more than 100 µM each time. Besides, the TGI in the assay on NCI/ADR-RES ovarian, in the assay with OVCAR-8 ovarian, in the assay on SF-268 CNS and in the assay with T-47D breast was more than 100 µM throughout.
Regarding `Clc1ccc(Cc2nc3ccccc3nc2-c2cccc(Br)c2)cc1`, the TGI in the assay on CCRF-CEM leukemia turned out to be 5.04 µM; in the assay on DU-145 prostate, 24.5 µM; with HCT-116 colon it was 3.5 µM; in the assay with HOP-92 NSCLC, 1.36 µM; in the assay on HS 578T breast, 3.57 µM; in the assay with MDA-MB-435, 4.71 µM. Moreover, the TGI in the assay on NCI/ADR-RES ovarian stood at 15.3 µM; with OVCAR-8 ovarian, 8.09 µM; with SF-268 CNS it was 44.9 µM; with T-47D breast it was 4.54 µM; in the assay on UACC-62 melanoma it was 4.01 µM.
For the compound `CCOC(=O)c1c(CN2CCNCC2)nc2ccccc2c1-c1ccccc1`, the TGI came out at 38.2 µM with CCRF-CEM leukemia; 31.3 µM in the assay with DU-145 prostate; 23.7 µM in the assay on HCT-116 colon; 17.7 µM in the assay on HOP-92 NSCLC; 35.9 µM with HS 578T breast; 28.5 µM with MDA-MB-435. Also, the TGI in the assay with NCI/ADR-RES ovarian was 34.4 µM; with OVCAR-8 ovarian it was 30.6 µM; with SF-268 CNS, 27.8 µM; in the assay on T-47D breast it was 30 µM; in the assay with UACC-62 melanoma, 28.2 µM.
`CCOC(=O)C1(C(=O)OCC)[C@H](c2ccccc2)C2=NO[C@@H]3CCC[C@H]1[C@H]23`: the TGI is more than 100 µM with CCRF-CEM leukemia; more than 100 µM in the assay on DU-145 prostate; more than 100 µM in the assay on HCT-116 colon; more than 100 µM in the assay with HOP-92 NSCLC; more than 100 µM with HS 578T breast; 51.5 µM with MDA-MB-435. The TGI with NCI/ADR-RES ovarian, with OVCAR-8 ovarian, in the assay on SF-268 CNS, with T-47D breast and with UACC-62 melanoma was more than 100 µM each time.
Turning to `CCNc1ccc2c(c1)Cc1ccccc1-2`, the TGI with CCRF-CEM leukemia was more than 100 µM; in the assay with DU-145 prostate, more than 100 µM; in the assay on HCT-116 colon, more than 100 µM; in the assay with HOP-92 NSCLC it was 82.4 µM; with HS 578T breast it was more than 100 µM; in the assay with MDA-MB-435, more than 100 µM. For the same compound, the TGI in the assay with NCI/ADR-RES ovarian, with OVCAR-8 ovarian, in the assay with SF-268 CNS, with T-47D breast and in the assay on UACC-62 melanoma was more than 100 µM throughout.
Turning to `Nc1ncnc2c1ncn2C1CCC(COS(N)(=O)=O)C1` (centres undefined), the TGI with CCRF-CEM leukemia, in the assay on DU-145 prostate, with HCT-116 colon, with HOP-92 NSCLC, in the assay with HS 578T breast and with MDA-MB-435 was more than 100 µM each time. Besides, the TGI with NCI/ADR-RES ovarian, in the assay on OVCAR-8 ovarian, in the assay on SF-268 CNS, in the assay with T-47D breast and in the assay on UACC-62 melanoma was more than 100 µM throughout.
In the case of `COc1cc2c(cc1OCCCC(=O)Nc1cc(C(=O)Nc3cc(C(=O)Nc4cc(C(=O)NCCCN(C)C)n(C)n4)n(C)n3)n(C)n1)N=CC1CCCN1C2=O` (centres undefined), the TGI with CCRF-CEM leukemia is more than 100 µM; in the assay with DU-145 prostate it was more than 100 µM; in the assay with HCT-116 colon it was more than 100 µM; in the assay with HOP-92 NSCLC it was more than 100 µM; in the assay on HS 578T breast, 79.7 µM; in the assay with MDA-MB-435, 44.9 µM. Also, the TGI with NCI/ADR-RES ovarian is 81.7 µM; in the assay with OVCAR-8 ovarian, more than 100 µM; in the assay on SF-268 CNS it was 89.3 µM; in the assay with T-47D breast, more than 100 µM; with UACC-62 melanoma, 40.6 µM.
With `Cc1ccc(S(=O)(=O)NNC(=O)c2cc(C)ccc2NC(=O)C23CC4CC(CC(C4)C2)C3)cc1`, the TGI is more than 100 µM with CCRF-CEM leukemia; more than 100 µM with DU-145 prostate; more than 100 µM in the assay with HCT-116 colon; 91.5 µM in the assay with HOP-92 NSCLC; more than 100 µM in the assay with HS 578T breast; more than 100 µM in the assay on MDA-MB-435. The TGI in the assay on NCI/ADR-RES ovarian, in the assay on OVCAR-8 ovarian, in the assay with SF-268 CNS, with T-47D breast and in the assay with UACC-62 melanoma was more than 100 µM in each case.
Take `CCOC(=O)C(NC(=O)N(C1=NCC(C)S1)C1CCCCC1)(OC)C(F)(F)F` (centres undefined): the TGI in the assay with CCRF-CEM leukemia, in the assay with DU-145 prostate, with HCT-116 colon, with HOP-92 NSCLC, in the assay with HS 578T breast and with MDA-MB-435 was more than 100 µM in each case. In addition, the TGI in the assay with NCI/ADR-RES ovarian, in the assay on OVCAR-8 ovarian, in the assay on SF-268 CNS, in the assay on T-47D breast and with UACC-62 melanoma was more than 100 µM each time.
Consider `N=c1oc2ccc3ccccc3c2cc1C(N)=O`, for which the TGI with CCRF-CEM leukemia is more than 100 µM; in the assay on DU-145 prostate, more than 100 µM; in the assay on HCT-116 colon, more than 100 µM; in the assay with HOP-92 NSCLC it was more than 100 µM; with HS 578T breast, 54.6 µM; in the assay on MDA-MB-435 it was more than 100 µM. In addition, the TGI with NCI/ADR-RES ovarian is more than 100 µM; in the assay on OVCAR-8 ovarian, more than 100 µM; in the assay with SF-268 CNS, more than 100 µM; with T-47D breast, 99.7 µM; in the assay with UACC-62 melanoma, more than 100 µM.
Take `CC1OC2=N[C@@H]1C(=O)N[C@@H](C(C)C)C1=N[C@H](C(=O)N[C@@H](C(C)C)C3=N[C@H](C(=O)N[C@@H](C(C)C)C4=N[C@H](C(=O)N[C@H]2C(C)C)C(C)O4)C(C)O3)C(C)O1` (some centres undefined): the TGI in the assay on CCRF-CEM leukemia, in the assay with DU-145 prostate, in the assay with HOP-92 NSCLC, in the assay on HS 578T breast, with MDA-MB-435 and with NCI/ADR-RES ovarian was more than 10 µM throughout. In addition, the TGI in the assay with OVCAR-8 ovarian, in the assay with SF-268 CNS and in the assay on T-47D breast was more than 10 µM each time.
